The target of assay [1] is hNav1.7 (Homo sapiens, UniProt Q15858). Put plainly: Electrophysiology (EP) assay, whole-cell patch clamp, hNav1.7 expressing HEK-293 cells. The conditions noted are these: hNav1.7 HEK-293 cells; affinity for the inactivated state; read-out: Nav1.7 Activity (μM) EP assay Ki. Format: cell-based. On the procedure:
The hNav1.7 expressing HEK-293 cells are plated on 35 mm culture dishes pre-coated with poly-D-lysine in standard DMEM culture media (Mediatech, Inc., Herndon, Va.) and incubated in a 5% CO2 incubator at 37° C. Cultured cells are used approximately 12-48 hours after plating.
The hNav1.7 expressing HEK-293 cells are plated on tissue culture flasks in standard DMEM culture media (Mediatech, Inc.) and incubated in a 5% CO2 incubator at 37° C. Cultured cells are used approximately 12-48 hours after plating.
On the day of experimentation, the 35 mm dish is placed on the stage of an inverted microscope equipped with a perfusion system that continuously perfuses the culture dish with fresh recording media. A gravity driven superfusion system is used to apply test solutions directly to the cell under evaluation. This “shooter” system consists of an array of glass pipettes connected to a motorized horizontal translator. The outlet of the shooter is positioned approximately 100 μm from the cell of interest.
Whole cell currents are recorded using the whole-cell patch clamp configuration using an Axopatch 200B amplifier (Axon Instruments, Foster City Calif.), 1322A A/D converter (Axon Instruments) and pClamp software (v. 8; Axon Instruments) and stored on a personal computer. Gigaseals are formed and the whole-cell configuration is established in voltage clamp mode, and membrane currents generated by hNav1.7 channels are recorded. Borosilicate glass pipettes with resistance values between 1.5 and 2.0 MΩ when filled with pipette solution are used and series resistance (<5 MΩ) is compensated by 75-80%. Signals are sampled at 50 kHz and low pass filtered at 3 kHz.
Automated Electrophysiology: On the day of experimentation, cells are prepared by removing media and digesting with appropriate enzymes to suspend cells in external solution.
Whole cell currents are recorded using the whole-cell patch clamp configuration using an Patchliner (Nanion Technologies, Munich Germany), EPC 10 quadro amplifiers (HEKA, Bellmore, N.Y.) and PatchControl HT 10905 (Nanion Technologies) and PatchMaster v2x73 software (HEKA) and stored on a personal computer. Gigaseals are formed and the whole-cell configuration is established in voltage clamp mode, and membrane currents generated by hNav1.7 are recorded. NPC-16 chips have resistance values between 1.0 and 2.0 MΩ when filled with pipette solution and series resistance (<5 MΩ). Signals are sampled at 25 kHz and low pass filtered at 3 kHz.
After establishing the whole-cell configuration in voltage clamp mode, voltage protocols are run to establish the 1) test potential (Vmax), 2) holding potential (Vh), and 3) the conditioning potential for each cell.
After establishing the whole-cell configuration in voltage clamp mode, a standard I-V protocol is run to determine the potential at which the maximal current (Imax) is elicited. This potential is the test potential (Vt). To determine a conditioning potential at which 100% of channels are in the inactivated state, a standard steady-state inactivation (SSIN) protocol is run using a series of fifteen 100 ms-long depolarizing prepulses, incrementing in 10 mV steps, immediately followed by a 5 ms testing pulse to Vmax. This protocol also permits determination of the holding potential at which all channels are in the resting state.
For compounds causing significant retardation of recovery from inactivation, an estimate of the affinity for the inactivated state of the channel (Ki) is generated using the following protocol. From the negative, no residual inactivation, holding potential, the cell is depolarized to the conditioning voltage for 2-5 seconds, returned to the negative holding potential for 10-20 ms to relieve fast inactivation and then depolarized to the test potential for ˜15 ms. This voltage protocol is repeated every 10-15 seconds, first to establish a baseline in the absence of the test compound, then in the presence of the test compound. […]

Assay [2] deals with human Nav1.7 (Homo sapiens, UniProt Q15858). The assay can be described thus: FLIPR or FLIPR TETRA sodium dye assay with KCl and test article pre-incubation (CoroNa Green, veratridine + scorpion venom). Format: cell-based.
[3] abbreviates: recombinant human Nav1.7 in HEK293 cells.

This note sets out measurements from US10047075B2, “Pyridines and pyrimidines and use thereof” (Purdue Pharma L.P., priority 2014, dated 2018).

Usually IC50 stands for the concentration at which inhibition is half-maximal.

Like-named read-outs stand apart in the source and are kept apart here.

Chain of hNav1.7 (Q15858 1-1977 isoform Q15858-3): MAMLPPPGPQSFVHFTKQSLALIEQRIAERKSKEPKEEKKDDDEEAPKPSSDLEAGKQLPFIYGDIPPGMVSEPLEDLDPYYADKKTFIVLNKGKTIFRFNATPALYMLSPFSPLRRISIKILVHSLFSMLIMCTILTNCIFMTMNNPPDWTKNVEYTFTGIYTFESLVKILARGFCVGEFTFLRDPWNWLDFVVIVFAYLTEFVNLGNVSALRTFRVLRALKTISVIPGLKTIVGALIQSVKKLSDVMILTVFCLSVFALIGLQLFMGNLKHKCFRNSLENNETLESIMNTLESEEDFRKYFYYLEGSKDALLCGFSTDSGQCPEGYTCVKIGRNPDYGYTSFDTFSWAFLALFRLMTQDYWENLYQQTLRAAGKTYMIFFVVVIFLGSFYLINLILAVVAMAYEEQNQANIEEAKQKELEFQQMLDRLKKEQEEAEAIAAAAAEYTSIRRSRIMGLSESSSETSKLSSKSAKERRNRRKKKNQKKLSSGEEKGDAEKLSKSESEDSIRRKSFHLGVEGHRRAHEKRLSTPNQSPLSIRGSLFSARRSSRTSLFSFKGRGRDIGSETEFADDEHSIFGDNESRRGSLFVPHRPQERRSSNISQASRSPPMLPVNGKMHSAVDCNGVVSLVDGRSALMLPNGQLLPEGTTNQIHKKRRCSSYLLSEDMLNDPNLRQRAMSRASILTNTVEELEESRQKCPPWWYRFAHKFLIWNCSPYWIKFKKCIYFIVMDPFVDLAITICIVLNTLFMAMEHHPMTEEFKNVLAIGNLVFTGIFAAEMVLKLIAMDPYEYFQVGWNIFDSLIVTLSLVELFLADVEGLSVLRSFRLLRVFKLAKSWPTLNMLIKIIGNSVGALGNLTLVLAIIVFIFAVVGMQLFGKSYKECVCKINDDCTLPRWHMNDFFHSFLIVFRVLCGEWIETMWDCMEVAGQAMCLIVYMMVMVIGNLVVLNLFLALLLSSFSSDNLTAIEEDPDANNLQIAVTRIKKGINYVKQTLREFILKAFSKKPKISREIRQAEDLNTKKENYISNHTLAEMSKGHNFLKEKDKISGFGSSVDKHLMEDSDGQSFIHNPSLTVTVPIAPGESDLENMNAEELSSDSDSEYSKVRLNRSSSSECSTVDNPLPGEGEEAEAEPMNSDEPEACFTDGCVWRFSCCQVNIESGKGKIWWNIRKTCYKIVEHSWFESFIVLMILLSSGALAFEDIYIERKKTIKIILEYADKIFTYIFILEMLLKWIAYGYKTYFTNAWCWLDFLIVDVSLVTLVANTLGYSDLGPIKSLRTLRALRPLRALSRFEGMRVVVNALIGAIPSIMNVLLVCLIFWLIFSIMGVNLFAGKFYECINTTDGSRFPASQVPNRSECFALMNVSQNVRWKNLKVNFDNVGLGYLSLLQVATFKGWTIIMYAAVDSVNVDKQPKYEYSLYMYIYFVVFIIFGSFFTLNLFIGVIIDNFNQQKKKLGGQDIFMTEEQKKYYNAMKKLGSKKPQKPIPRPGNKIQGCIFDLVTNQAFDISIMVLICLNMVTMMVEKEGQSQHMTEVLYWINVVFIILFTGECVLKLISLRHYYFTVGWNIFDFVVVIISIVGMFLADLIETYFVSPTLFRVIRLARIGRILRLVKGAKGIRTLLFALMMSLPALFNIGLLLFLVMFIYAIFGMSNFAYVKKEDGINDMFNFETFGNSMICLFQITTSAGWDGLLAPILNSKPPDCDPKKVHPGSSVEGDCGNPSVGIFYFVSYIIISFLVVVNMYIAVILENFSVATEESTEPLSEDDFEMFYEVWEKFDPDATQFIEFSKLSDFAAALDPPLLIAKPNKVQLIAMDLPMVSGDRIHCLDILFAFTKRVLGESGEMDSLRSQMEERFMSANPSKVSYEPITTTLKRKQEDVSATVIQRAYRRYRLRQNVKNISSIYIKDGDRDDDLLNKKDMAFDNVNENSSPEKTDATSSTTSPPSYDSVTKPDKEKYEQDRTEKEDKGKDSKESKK
Chain of human Nav1.7 (Q15858 1-1977 isoform Q15858-3): as above

In the case of `CC(C)CN1CCN(S(C)(=O)=O)Cc2cc(-c3cccc([C@H](O)CO)n3)ccc21` [Compound 124, (S)-1-(6-(1-isobutyl-4-(methylsulfonyl)-2,3,4,5-tetrahydro-1H-benzo-[e][1,4]diazepin-7-yl)pyridin-2-yl)ethane-1,2-diol], the Ki in assay [1] turned out to be 2.14 ± 0.586 µM.
As to `O=C(CO)N1CCN(c2ccc(C(F)(F)F)cc2)c2ccc(-c3cccc([C@H](O)CO)n3)cc2C1` [Compound 99, (S)-1-(7-(6-(1,2-dihydroxyethyl)pyridin-2-yl)-1-(4-(trifluoromethyl)phenyl)-1,2,3,5-tetrahydro-4H-benzo[e][1,4]diazepin-4-yl)-2-hydroxyethan-1-one], the IC50 in assay [2] (setting [3]) worked out at 0.896 ± 0.186 µM. The Ki in assay [1] came out at 1.23 ± 0.364 µM.
On to `NC(=O)N1CCN(c2ccc(C(F)(F)F)cc2)c2ccc(-c3cccc([C@H](O)CO)n3)cc2C1` [Compound 98, (S)-7-(6-(1,2-dihydroxyethyl)pyridin-2-yl)-1-(4-(trifluoromethyl)phenyl)-1,2,3,5-tetrahydro-4H-benzo[e][1,4]diazepin-4-carboxamide], for which, in assay [2], the IC50 was 0.973 ± 0.099 µM. The Ki in assay [1] was determined as 0.451 ± 0.092 µM.
Turning to `OC[C@@H](O)c1cccc(-c2ccc3c(c2)COCCN3c2ccc(C(F)(F)F)cc2)n1` [Compound 62, (S)-1-(6-(1-(4-(trifluoromethyl)phenyl)-1,2,3,5-tetrahydrobenzo[e][1,4]oxazepin-7-yl)pyridin-2-yl)ethane-1,2-diol], the half-maximal inhibitory concentration (IC50) in assay [2] (setting [3]) came out at 0.419 ± 0.058 µM. Moreover, the Ki in assay [1] came out at 0.458 ± 0.078 µM.
The like results for `CN1CCN(c2ccc(C(F)(F)F)cc2)c2ccc(-c3cccc(C(N)=O)n3)cc2C1` [Compound 85, 6-(4-methyl-1-(4-(trifluoromethyl)phenyl)-2,3,4,5-tetrahydro-1H-benzo[e][1,4]diazepin-7-yl)picolinamide] were, in that order, 0.607 ± 0.086 µM and 0.399 ± 0.2 µM.
`OC[C@@H](O)c1cccc(-c2ccc3c(c2)CN(CC2CC2)CCN3c2ccc(C(F)(F)F)cc2)n1` [Compound 87, (S)-1-(6-(4-(cyclopropylmethyl)-1-(4-(trifluoromethyl)phenyl)-2,3,4,5-tetrahydro-1H-benzo[e][1,4]diazepin-7-yl)pyridin-2-yl)ethane-1,2-diol]: the IC50 in assay [2] turned out to be 1.32 ± 0.133 µM. Besides, the Ki in assay [1] was 0.548 ± 0.089 µM.
Take `CC(=O)N1CCN(c2ccc(C(F)(F)F)cc2)c2ccc(-c3cccc(C(N)=O)n3)cc2C1` [Compound 91, 6-(4-acetyl-1-(4-(trifluoromethyl)phenyl)-2,3,4,5-tetrahydro-1H-benzo[e][1,4]diazepin-7-yl)picolinamide]: the 50% inhibitory concentration (IC50) in assay [2] (setting [3]) was determined as 0.375 ± 0.062 µM. Moreover, the Ki in assay [1] was determined as 0.3 ± 0.033 µM.
As to `CC(=O)N1CCN(c2ccc(C(F)(F)F)cc2)c2ccc(-c3cccc([C@H](O)CO)n3)cc2C1` [Compound 96, (S)-1-(7-(6-(1,2-dihydroxyethyl)pyridin-2-yl)-1-(4-(trifluoromethyl)phenyl)-1,2,3,5-tetrahydro-4H-benzo[e][1,4]diazepin-4-yl)ethan-1-one], the half-maximal inhibitory concentration (IC50) in assay [2] (setting [3]) is 0.662 ± 0.035 µM. In assay [1], the Ki stood at 0.627 ± 0.134 µM.
Take `C[C@H](Nc1cc(C(N)=O)nc(-c2ccc3c(c2)OCCCN3c2ccc(C(F)(F)F)cc2)n1)C(N)=O` [Compound 63, (S)-6-((1-amino-1-oxopropan-2-yl)amino)-2-(5-(4-(trifluoromethyl)phenyl)-2,3,4,5-tetrahydrobenzo[b][1,4]oxazepin-8-yl)pyrimidine-4-carboxamide]: the IC50 in assay [2] (setting [3]) came out at 0.246 ± 0.029 µM. Also, the Ki in assay [1] was determined as 0.344 ± 0.1 µM.
The like results for `C[C@H](Nc1cc(C(N)=O)nc(-c2ccc3c(c2)OCCC3c2ccc(C(F)(F)F)cc2)n1)C(N)=O` (stereo partly drawn) [Compound 111, 6-(((S)-1-amino-1-oxopropan-2-yl)amino)-2-(4-(4-(trifluoromethyl)phenyl)chroman-7-yl)pyrimidine-4-carboxamide] were, in that order, 0.379 ± 0.044 µM and 0.459 ± 0.1 µM.
Consider `C[C@H](Nc1cc(C(N)=O)nc(-c2ccc3c(c2)CN(C)CCN3c2ccc(C(F)(F)F)cc2)n1)C(N)=O` [Compound 90, (S)-6-((1-amino-1-oxopropan-2-yl)amino)-2-(4-methyl-1-(4-(trifluoromethyl)phenyl)-2,3,4,5-tetrahydro-1H-benzo[e][1,4]diazepin-7-yl)pyrimidine-4-carboxamide], for which the IC50 in assay [2] (setting [3]) was above 20 µM.
Take `NC(=O)CN1CCN(c2ccc(C(F)(F)F)cc2)c2ccc(-c3cccc([C@H](O)CO)n3)cc2C1` [Compound 103, (S)-2-(7-(6-(1,2-dihydroxyethyl)pyridin-2-yl)-1-(4-(trifluoromethyl)phenyl)-1,2,3,5-tetrahydro-4H-benzo[e][1,4]diazepin-4-yl)acetamide]: the IC50 in assay [2] was found to be 1.05 ± 0.055 µM. Also, the Ki in assay [1] was found to be 0.299 ± 0.068 µM.
Regarding `NC(=O)CN1CCN(C2CCCCC2)c2ccc(-c3cccc([C@H](O)CO)n3)cc2C1` [Compound 104, (S)-2-(1-cyclohexyl-7-(6-(1,2-dihydroxyethyl)pyridin-2-yl)-1,2,3,5-tetrahydro-4H-benzo[e][1,4]diazepin-4-yl)acetamide], the concentration for half-maximal inhibition (IC50) in assay [2] (setting [3]) was 2.61 ± 0.047 µM.
On to `C[C@H](Nc1cc(C(N)=O)nc(-c2ccc3c(c2)CCCN3c2ccc(C(F)(F)F)cc2)n1)C(N)=O` [Compound 80, (S)-6-((1-amino-1-oxopropan-2-yl)amino)-2-(1-(4-(trifluoro-methyl)phenyl)-1,2,3,4-tetrahydroquinolin-6-yl)pyrimidine-4-carboxamide], for which the half-inhibitory concentration (IC50) in assay [2] (setting [3]) was found to be 0.653 ± 0.118 µM.
Same read-out and setting: with `O=S(=O)(c1ccc(C(F)(F)F)cc1)N1CCCc2cc(-c3cccc([C@H](O)CO)n3)ccc21` [Compound 78, (S)-1-(6-(1-((4-(trifluoromethyl)-phenyl)sulfonyl)-1,2,3,4-tetrahydroquinolin-6-yl)pyridin-2-yl)ethane-1,2-diol] the figure was 0.857 ± 0.103 µM; with `NC(=O)c1cccc(-c2ccc3c(c2)CCCN3c2cccc(C(F)(F)F)c2)n1` [Compound 67, 6-(1-(3-(trifluoromethyl)-phenyl)-1,2,3,4-tetrahydroquinolin-6-yl)picolinamide], above 20 µM.
Same read-out and setting: with `NC(=O)c1cccc(-c2ccc3c(c2)CNCCN3c2ccc(C(F)(F)F)cc2)n1` [Compound 84, 6-(1-(4-(trifluoromethyl)-phenyl)-2,3,4,5-tetrahydro-1H-benzo[e][1,4]diazepin-7-yl)picolinamide] the figure was 1.92 ± 0.296 µM; with `OC[C@@H](O)c1cccc(-c2ccc3c(c2)CN(Cc2ncc[nH]2)CCN3c2ccc(C(F)(F)F)cc2)n1` [Compound 107, (S)-1-(6-(4-((1H-imidazol-2-yl)methyl)-1-(4-(trifluoromethyl)phenyl)-2,3,4,5-tetrahydro-1H-benzo[e][1,4]diazepin-7-yl)pyridin-2-yl)ethane-1,2-diol], 0.669 ± 0.053 µM; with `C[C@H](Nc1cc(C(N)=O)nc(-c2ccc3c(c2)CNCCN3c2ccc(C(F)(F)F)cc2)n1)C(N)=O` [Compound 88, (S)-6-((1-amino-1-oxopropan-2-yl)amino)-2-(1-(4-(trifluoromethyl)phenyl)-2,3,4,5-tetrahydro-1H-benzo[e][1,4]diazepin-7-yl)pyrimidine-4-carboxamide], above 20 µM.
Turning to `NC(=O)c1cccc(-c2ccc3c(c2)OCCC3c2ccc(C(F)(F)F)cc2)n1` (centres unmarked) [Compound 110, 6-(4-(4-(trifluoromethyl)-phenyl)chroman-7-yl)-picolinamide], the IC50 in assay [2] (setting [3]) worked out at 0.142 ± 0.038 µM. The Ki in assay [1] turned out to be 0.161 ± 0.07 µM.
For `CC(C)CN1CCN(S(C)(=O)=O)Cc2cc(-c3cccc([C@H](O)[C@@H](O)C(N)=O)n3)ccc21` [Compound 125, (2R,3S)-2,3-dihydroxy-3-(6-(1-isobutyl-4-(methylsulfonyl)-2,3,4,5-tetrahydro-1H-benzo[e][1,4]diazepin-7-yl)pyridin-2-yl)propanamide], in assay [1], the Ki came to 7.1 ± 2.45 µM.
